Reference: PMC7957705 (Molecules, 2021)
Like-named read-outs stand apart in the source and are kept apart here. Where a SMILES comes first, the peptide text is derived from it. Bridges are numbered along the chain shown (N, C = ends). Triazole bridges read from a SMILES are 1,4-linked. [ ]: non-standard residue; d: D form. The star is where a group is joined. Benzoyl(4-guanidino) = N=C(N)Nc1ccc(C(=O)*)cc1; Aha = [N-]=[N+]=NCC[C@H](N)C(=O)O; β3hV = CC(C)[C@H](N)CC(=O)O; Nle = CCCC[C@H](N)C(=O)O; Pra = C#CC[C@H](N)C(=O)O

Experiments:
[1] = tested on: high-fat diet-induced obese C57BL/6 mice; conditions: mouse, in vivo
Procedure: (§1) Male C57BL/6 mice at 4 weeks of age were provided by BioLasco Taiwan (under Charles River Laboratories Licensee). All animals were maintained in an environment with well-controlled temperature (20–24 °C) and humidity (30–70%) with 12 h light/dark cycles. Free access to standard lab diet (MFG (Oriental Yeast Co., Ltd., Japan)) and autoclaved tap water was granted. […]
(§2) The protocol was performed for all groups and all animals. […] Body weight was recorded three times weekly from Week 9. Food/water intake was recorded twice weekly from Week 9. […] At the termination in Week 20 (Day 141), the adipose tissue weight, including epididymal, mesenteric, inguinal, retroperitoneal, and brown fat, was measured after the animals were sacrificed. […] The following parameters were measured: (1) body weight three times weekly; (2) food/water intake twice weekly; (3) blood chemistry in Weeks 8 (before dosing), 16 and 20 including glucose, insulin, serum lipids (triglycerides (TG), total cholesterol (TC), AST, alanine aminotransferase (ALT), uric acid, creatinine, potassium and sodium through 16-h fasting animals; and finally, (4) total body fat (including visceral and subcutaneous fat) in Week 20.

[2] = type: in vitro ADME; conditions: for half-life: plasma
Procedure: Plasmas from 3 species (including commercially available human healthy donors) were adjusted to pH 7.4 if necessary. Incubations were performed at a concentration of 1 µM of the compound at 37 °C (in the presence of a final concentration of DMSO of 2.5% v/v. The incubations were stopped at 0, 15, 30, 60 and 120 min by methanol. Each time point was run in sextuplets. The sampling plates were then centrifuged (2500 rpm, 45 min, 4 °C) and the supernatants pooled. Samples were analyzed for parent compound by LC-MS/MS. The percentage of parent compound remaining at each time point relative to the 0 min sample is then calculated from LC-MS/MS peak area ratios. Then, the stability in plasma was evaluated by incubating human, rat or mouse plasma with the compound(s) as follows: the product (0.1 µM in TRIS buffer pH 7.4 0.1% BSA) was incubated with the plasma at 37 °C. The disappearance of the product was measured at 15, 45, 120, 240 and 300 min by mass spectrometry. Incubations were carried out in a robot Star (Hamilton France, Villebon-sur-Yvette, France). At each sampling time, 50 µL of the reaction medium was removed and diluted with 100 µL of acetonitrile. After centrifugation (20 min at + 4 °C, 4000 rpm), 75 µL of the supernatants was transferred into a 384 well injection plate. Ten microliters were injected onto UPLC coupled with a XEVO TQS mass spectrometer system (Waters, Milford, MA, USA). The unchanged product is quantified using a reference sample (0.1 µM) prepared during the incubation process. A second reference sample at 0.01 µM is prepared in the same conditions to verify the linearity of the detection method. The peak height (or area) is measured to calculate the half-life of the compound.

human MCH-R1 = target: T1, human MCH-R1 (Homo sapiens, UniProt Q99705); test: MCH-induced cytosolic Ca2+ ion mobilization, antagonist effect; type: cell-based
T1 construct: expressed in transfected cells
Procedure: The functional assay was run onto cells expressing the hMCH-R1 receptor, as described in Wang et al.. In brief, the cells are suspended in DMEM buffer (Invitrogen), then distributed in microplates at a density of 4.104 cells/well. The fluorescent probe (Fluo4 Direct, Invitrogen) mixed with probenecid in Hanks’ Balanced Salt solution (HBSS) (Invitrogen) complemented with 20 mM HEPES (Invitrogen) (pH 7.4) is then added into each well and equilibrated with the cells for 60 min at 37 °C, then 15 min at 22 °C. Then, the assay plates are positioned in a microplate reader (CellLux, PerkinElmer) which is used for the addition of the test compound, reference agonist or HBSS buffer (basal control), and the measurements of changes in fluorescence intensity, which varies proportionally to the free cytosolic Ca^2+ ion concentration. For stimulated control measurements, MCH at 300 nM is added in separate assay wells. The results are expressed as a percentage of the control response to 300 nM MCH. The standard reference agonist is MCH, which is tested in each experiment at several concentrations to generate a concentration-response curve from which its EC50 value is calculated. For the antagonist effect, the results are expressed as a percentage inhibition of the control response to 30 nM MCH, which was added to all tested wells and controls 5 min after the candidate products.

[3] = tested on: high-fat diet-induced obese C57BL/6 mice; test: Diet-induced obesity model: food and water intake; type: in vivo, mouse; conditions: 5 and 10 mg/kg i.p. once daily, HFD mice
Procedure: as §1, §2

T1 sequence (Q99705 whole entry): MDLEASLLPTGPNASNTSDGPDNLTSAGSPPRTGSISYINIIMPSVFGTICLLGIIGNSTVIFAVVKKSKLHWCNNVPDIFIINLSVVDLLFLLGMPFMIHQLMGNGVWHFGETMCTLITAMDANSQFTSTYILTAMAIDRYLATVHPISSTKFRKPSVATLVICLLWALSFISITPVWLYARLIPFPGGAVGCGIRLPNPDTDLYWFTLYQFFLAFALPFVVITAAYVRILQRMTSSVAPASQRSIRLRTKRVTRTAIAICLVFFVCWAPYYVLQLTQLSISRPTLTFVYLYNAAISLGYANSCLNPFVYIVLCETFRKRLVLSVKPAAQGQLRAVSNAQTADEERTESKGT

CCCC[C@@H]1NC(=O)[C@@H](NC(=O)c2ccc(NC(=N)N)cc2)CCn2cc(nn2)C[C@@H](C(=O)N[C@@H](Cc2c[nH]c3ccccc23)C(=O)O)NC(=O)[C@@H]2CCCN2C(=O)[C@H](CCCNC(=N)N)NC(=O)C[C@H](C(C)C)NC(=O)[C@H](CCCNC(=N)N)NC(=O)[C@H](CC(C)C)NC1=O [GPS18169] ({Benzoyl(4-guanidino)}-[Aha][Nle]LR[β3hV]RP[Pra]W-OH; triazole 1-8)
overt toxicities and behavioral modifications [1]: Neither overt toxicities nor behavioral modifications were observed
half-life ([2]; human): ≥ 5 h
initial dose remaining after incubation in mice plasma ([2]; mouse): about 50%
half-life ([2]; mouse): 2.92 ± 0.283 h
half-life ([2]; rat): ≥ 5 h
antagonistic functionality (in words) (human MCH-R1): high picomolar range
Ki (human MCH-R1; antagonism of MCH-induced cytosolic Ca2+ mobilization, read-out: Ki (functionality, antagonism at MCH-R1)): 0.028 nM
food intake, treated vs vehicle [3]: no change
water intake, treated vs vehicle [3]: no change
